Data from ChEMBL document CHEMBL1201862, “PubChem BioAssay data set” (2004).
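Exposure lasted 48 hours, with cells grown in 96-well plates and compounds tested at five concentrations. At the GI50, growth is halved.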 The source made the active and inactive calls. No stated cut-off is given here; in the data, active = GI50 up to about 1.1 µM and inactive = higher.

How the values were obtained:
Assay in all cases: growth of human tumour cells (NCI), 48 h
A498 = tested on: A498
BT-549 = tested on: BT-549
CAKI-1 = tested on: CAKI-1
CCRF-CEM = tested on: CCRF-CEM
EKVX = tested on: EKVX
HL-60 = tested on: HL-60
HOP-62 = tested on: HOP-62
HT-29 = tested on: HT-29
K562 = tested on: K562
M19-MEL = tested on: M19-MEL
MDA-MB-435 = tested on: MDA-MB-435
NCI-H460 = tested on: NCI-H460
OVCAR-3 = tested on: OVCAR-3
RPMI-8226 = tested on: RPMI-8226
SK-MEL-2 = tested on: SK-MEL-2
SK-OV-3 = tested on: SK-OV-3
SN12C = tested on: SN12C
SNB-19 = tested on: SNB-19
SW-620 = tested on: SW-620
T47D = tested on: T47D

SMILES | GI50 (A498) | GI50 (BT-549) | GI50 (CAKI-1) | GI50 (CCRF-CEM) | GI50 (EKVX) | GI50 (HL-60) | GI50 (HOP-62) | GI50 (HT-29) | GI50 (K562) | GI50 (M19-MEL) | GI50 (MDA-MB-435) | GI50 (NCI-H460) | GI50 (OVCAR-3) | GI50 (RPMI-8226) | GI50 (SK-MEL-2) | GI50 (SK-OV-3) | GI50 (SN12C) | GI50 (SNB-19) | GI50 (SW-620) | GI50 (T47D)
Cc1ccc(S(=O)(=O)SC(C)(C)C)cc1 | > 100 µM (inactive) | 22.4 µM (inactive) | 22.2 µM (inactive) | 12.6 µM (inactive) | > 45.8 µM (inactive) | 18 µM (inactive) | > 60.3 µM (inactive) | 13.1 µM (inactive) | 19.9 µM (inactive) | 33.8 µM (inactive) | 31.4 µM (inactive) | > 100 µM (inactive) | 20.9 µM (inactive) | 15.3 µM (inactive) | 33.2 µM (inactive) | > 100 µM (inactive) | 38.9 µM (inactive) | > 100 µM (inactive) | 22.2 µM (inactive) | > 100 µM (inactive)
N=S(=O)(c1ccccc1)c1ccccc1[N+](=O)[O-] (centres undefined) | > 100 µM (inactive) |  | > 100 µM (inactive) | > 100 µM (inactive) | > 100 µM (inactive) | > 100 µM (inactive) | > 100 µM (inactive) | > 100 µM (inactive) | > 100 µM (inactive) | > 100 µM (inactive) |  | > 100 µM (inactive) | > 100 µM (inactive) | > 100 µM (inactive) | 68.5 µM (inactive) | > 100 µM (inactive) | > 100 µM (inactive) | > 100 µM (inactive) | > 100 µM (inactive) | 
CC(C)n1c2c([n+](C)c1/C=C/c1ccccc1)C(=O)c1ccccc1C2=O | 0.611 µM (active) | 0.241 µM (active) | 2.79 µM (inactive) | 0.0743 µM (active) | 0.206 µM (active) | 0.02 µM (active) | 0.398 µM (active) | 0.0875 µM (active) | 0.0592 µM (active) | 0.125 µM (active) | 0.237 µM (active) | 0.36 µM (active) | < 0.01 µM (active) | 0.0575 µM (active) | 0.116 µM (active) | 0.299 µM (active) | 0.0495 µM (active) | 0.223 µM (active) | 0.0501 µM (active) | 0.0397 µM (active)
Cc1ccc(C(=O)/C=C/c2cccc([N+](=O)[O-])c2)cc1 | 98.2 µM (inactive) |  | > 92 µM (inactive) | 29.1 µM (inactive) | > 100 µM (inactive) | 36.6 µM (inactive) | > 100 µM (inactive) | 29.3 µM (inactive) | 28.4 µM (inactive) | > 44.6 µM (inactive) |  | > 100 µM (inactive) | 54.1 µM (inactive) | 26.6 µM (inactive) | > 100 µM (inactive) | > 94.4 µM (inactive) | > 56.4 µM (inactive) | 60.1 µM (inactive) | 21.6 µM (inactive) | 
O=C(OC1CCC2OOC1O2)c1ccc([N+](=O)[O-])cc1 (centres undefined) | > 100 µM (inactive) |  | > 100 µM (inactive) | > 100 µM (inactive) | > 100 µM (inactive) | > 100 µM (inactive) | > 100 µM (inactive) | > 100 µM (inactive) | > 100 µM (inactive) | > 100 µM (inactive) |  | > 100 µM (inactive) | > 100 µM (inactive) | > 100 µM (inactive) | > 100 µM (inactive) | > 100 µM (inactive) | > 100 µM (inactive) | > 100 µM (inactive) | > 100 µM (inactive) | 
C[n+]1c2ccccc2c(/C=N\NS(=O)(=O)c2ccc(O)c(C(=O)O)c2)c2ccccc21 | 37.6 µM (inactive) |  | 28.2 µM (inactive) | 21.8 µM (inactive) | 78.9 µM (inactive) | 22.1 µM (inactive) | > 100 µM (inactive) | 35.3 µM (inactive) | 27.5 µM (inactive) | 99.8 µM (inactive) |  | 36.2 µM (inactive) | 49.1 µM (inactive) | 40.6 µM (inactive) | 63.5 µM (inactive) | > 100 µM (inactive) | 67.8 µM (inactive) | 67.9 µM (inactive) | 41.1 µM (inactive) | 
O=C(CC1(O)C(=O)Nc2c(Cl)cc(Cl)cc21)c1ccc([N+](=O)[O-])cc1 (centres undefined) | 29.9 µM (inactive) |  | > 53.8 µM (inactive) | 26.7 µM (inactive) | 43.4 µM (inactive) | 7.89 µM (inactive) | > 100 µM (inactive) | > 58.9 µM (inactive) | 43.4 µM (inactive) | 10.3 µM (inactive) |  | 86.5 µM (inactive) | 33.7 µM (inactive) | 26.9 µM (inactive) | > 56.4 µM (inactive) | > 100 µM (inactive) | > 45.7 µM (inactive) | > 100 µM (inactive) | 28.3 µM (inactive) | 
CNC(=O)ON(C(C)=O)C(=O)NC [CARACEMIDE] | 87.7 µM (inactive) | 19.3 µM (inactive) | 55.2 µM (inactive) |  |  |  | 140 µM (inactive) |  |  | 112 µM (inactive) | 15.3 µM (inactive) | 78.7 µM (inactive) | 54.1 µM (inactive) |  | 26 µM (inactive) | 106 µM (inactive) | 58.9 µM (inactive) | 157 µM (inactive) | 52 µM (inactive) | 9.38 µM (inactive)
